Patent US5587389A, “Substituted heteroarylaklylthiopyridines for controlling helicobacter bacteria” (BYK Gulden Lomberg Chemische Fabrik GmbH, priority 1993, dated 1996)

Tested on: Helicobacter pylori
Assay: activity against Helicobacter pylori (MIC), modified method of Iwahi et al., Columbia agar, growth period of 4 days
Assay type: cell-based
Conditions: Columbia agar (Oxoid)
Description: The compounds of the formula I were tested for their activity against Helicobacter pylori following a modification of the method described by Tomoyuki Iwahi et al. (Antimicrobial Agents and Chemotherapy, 1991, 490-496) using Columbia agar (Oxoid) over a growth period of 4 days. The MIC values listed in Table 2 below were found here for the tested compounds (the compound numbers shown agree with the compound numbers in the description).

Structure (SMILES)	MIC Value [µg/mL]
Cc1c(SCCc2ccccn2)ccnc1CSc1nc2ccccc2[nH]1 [Compound 17]	≤ 1.0

Same assay, conditions: Helicobacter pylori, 96 h, Columbia agar (Oxoid)

Structure (SMILES)	MIC [µg/mL]
c1csc(CSc2ccnc(CSc3nc4ccccc4[nH]3)c2)c1 [Compound 8, 2-{[[4-(2-Thienylmethylthio)-2,pyridinyl]methyl]thio}-1H-benzimidazole]	≤ 1
Cc1c(SCc2ccsc2)ccnc1CSc1nc2ccccc2[nH]1 [Compound 6, 2-{[[3-Methyl-4-(3-thienylmethylthio)-2-pyridinyl]methyl]thio}-1H-benzimidazole]	≤ 1
COc1ccnc(CSc2ccnc(CSc3nc4ccccc4[nH]3)c2C)c1OC [Compound 16, 2-{[[4-3,4-Dimethoxy-2-pyridinylmethylthiol-3-methyl-2-pyridinyl]methyl]thio}-1H-benzimidazole]	≤ 1
Cc1c(SCCCn2ccnc2C)ccnc1CSc1nc2ccccc2[nH]1 [Compound 19, 2-{[[4-[3-(2-Methylimidazol-1-yl)propylthio]-3-methyl-2-pyridinyl]methyl]thio}-1H-benzimidazole]	≤ 1
Cc1c(SCc2ccco2)ccnc1CSc1nc2ccccc2[nH]1.Cl.Cl [Compound 12, 2-{[[4-(2-Furylmethylthio)-3-methyl-2-pyridinyl]methyl]thio}-1H-benzimidazole dihydrochloride]	≤ 1
Cc1c(SCCCn2ccnc2)ccnc1CSc1nc2ccccc2[nH]1 [Compound 18, 2-{[[-4-[3-(Imidazol-1-yl)propylthio]-3-methyl-2-pyridinyl]methyl]thio}-1H-benzimidazole]	≤ 1

Other lines, results leading:

MIC [µg/mL]	Structure (SMILES)
≤ 1	COc1c(SCc2ccco2)ccnc1CSc1nc2ccccc2[nH]1 [Compound 2, 2-{[[4-(2-Furylmethylthio)-3-methoxy-2-pyridinyl]methyl]thio}-1H-benzimidazole]
≤ 1	Cc1c(SCc2cccs2)ccnc1CSc1nc2ccccc2[nH]1 [Compound 5, 2-{[[3-Methyl-4-(2-thienylmethylthio)-2-pyridinyl]methyl]thio}-1H-benzimidazole]
≤ 1	Cc1c(SCc2ccco2)ccnc1C[S+]([O-])c1nc2ccccc2[nH]1 (centres unmarked) [Compound 20, 2-{[[4-(2-Furylmethylthio)-3-methyl-2-pyridinyl]methyl]sulfinyl}-1H-benzimidazole]
≤ 1	Cc1c(SCc2ccco2)ccnc1CSc1nc2ccccc2[nH]1 [Compound 1, 2-{[[4-(2-Furylmethylthio)-3-methyl,2-pyridinyl]methyl]thio}-1H-benzimidazole]
